Columns and labels:
[1] = tested on: HTLV-III (strain RF) grown in C8166 cells; test: in vitro antiviral activity (activity against HIV); format: cell-based; conditions: Human immunodeficiency virus 1, C8166, 72 h, read-out: Activity against HIV I50
Description: This assay uses HTLV-III (strain RF) grown in C8166 cells (a human CD4^+ T lymphoblastoid line) using RPM1 1640 medium with bicarbonate buffer, antibiotics and 10% foetal bovine serum.
A suspension of cells is infected with ten times the TCID50 of virus and adsorption is allowed to proceed for 90 minutes at 37° C. The cells are washed three times with medium. The test is carried out in 6 ml tissue culture tubes containing 2×10^5 infected cells in 1.5 ml of medium. Test compounds are dissolved in either aqueous medium or dimethyl sulphoxide, according to solubility, and a […] solution of the test compound is added. The cultures are incubated at 37° C. for 72 hours in a humidified atmosphere containing 5% carbon dioxide in air. The cultures are then centrifuged and an aliquot of the supernatant is solubilized with Nonidet P40 and subjected to an antigen capture assay which uses a primary antiserum with particular reactivity against the viral p24 antigen and a horseradish peroxidase detection system. Colour generation is measured spectrophotometrically and is plotted against the concentration of test compound. The concentration which produces 50% protection is determined (I50).

HIV protease = biological target: T1, HIV protease (Human immunodeficiency virus type 1 group M subtype B, UniProt P04585); test: in vitro inhibition of HIV protease; format: biochemical; conditions: substrate succinyl-Val-Ser-Gln-Asn-Phe-Pro-Ile isobutylamide; citrate buffer pH5.5; 37° C.; 50% inhibition; read-out: HIV protease inhibition I50
T1 construct: HIV protease was expressed in E. coli; made in house; host or cells: E. coli
Description: HIV protease was expressed in E. coli and partially purified from soluble extracts of the bacterium by ammonium sulphate fractionation (0-30%). Protease activity was assayed using the protected heptapeptide succinyl-Val-Ser-Gln-Asn-Phe-Pro-Ile isobutylamide as the substrate. Cleavage of the substrate was quantified by measuring the production of H-Pro-Ile isobutyl-amide by the spectrophotometric assay of N-terminal proline,
1.25 mM of substrate were dissolved in 125 mM of citrate buffer (pH5.5) containing 0.125 mg/ml of Tween 20. […] of a solution of various concentrations of the test compound (dissolved in methanol or dimethyl sulphoxide and diluted with water containing 0.1% Tween 20) and […] of protease were added to […] of the above buffered substrate. Digestion was carried out at 37° C. for a fixed period of time and was terminated by the addition of 1 ml of colour reagent [30 mg/ml of isatin and 1.5 mg/ml of 2-(4-chlorobenzoyl)benzoic acid in 10% acetone in ethanol (vol./vol.)]. The solution was heated in a water bath and then the pigmented residues were re-dissolved in 1 ml of 1% pyrogallol in 33% water in acetone (wt./vol./vol.), The optical density of the solution was measured spectrophotometrically at 599 nm, The formation of H-Pro-Ile isobutylamide in the presence of the test compound was compared with controls and the concentration of test compound required to give 50% inhibition (I50) was determined by means of a graph plotted from the various concentrations of test compound used.

Row | Compound | IC50 [1] | IC50 (HIV protease)
1 | CC(C)(C)NC(=O)[C@@H]1CCCC[C@@H]1C[C@@H](O)[C@H](Cc1ccccc1)NC(=O)[C@H](CC(N)=O)NC(=O)OCc1ccccc1 [Compound B, 2(R)-[3(S)-[[N-(benzyloxycarbonyl)-L-asparaginyl]amino]-2(R)-hydroxy-4-phenylbutyl]-N-tert.butyl-1(R)-cyclohexanecarboxamide] | 1000 nM | 57 nM
2 | CC(C)(C)NC(=O)[C@@H]1CCCC[C@H]1C[C@@H](O)[C@H](Cc1ccccc1)NC(=O)[C@H](CC#N)NC(=O)OCc1ccccc1 [Compound F, 2(S)-[3(S)-[[N-(benzyloxycarbonyl)-3-cyano-L-alanyl]amino]-2(R)-hydroxy-4-phenylbutyl]-N-tert.butyl-1(R)-cyclohexanecarboxamide] |  | 2 nM
3 | CSC[C@H](NC(=O)OCc1ccccc1)C(=O)N[C@@H](Cc1ccccc1)[C@H](O)C[C@@H]1CCCC[C@H]1C(=O)NC(C)(C)C [Compound D, 2(S)-[3(S)-[[N-(benzyloxycarbonyl)-S-methyl-L-cysteinyl]amino]-2(R)-hydroxy-4-phenylbutyl]-N-tert.butyl-1(R)-cyclohexanecarboxamide] |  | 1.3 nM
4 | CC(C)(C)NC(=O)[C@@H]1CCCC[C@H]1C[C@@H](O)[C@H](Cc1ccccc1)NC(=O)[C@H](CC(N)=O)NC(=O)OCc1ccccc1 [Compound A, 2(S)-[3(S)-[[N-(benzyloxycarbonyl)-L-asparaginyl]amino]-2(R)-hydroxy-4-phenylbutyl]-N-tert.butyl-1(R)-cyclohexanecarboxamide] | 46 nM | 2 nM
5 | COC(=O)C[C@H](NC(=O)OCc1ccccc1)C(=O)N[C@@H](Cc1ccccc1)[C@H](O)C[C@@H]1CCCC[C@H]1C(=O)NC(C)(C)C [Compound E, 2(S)-[3(S)-[[N-(benzyloxycarbonyl)-O-methyl-L-aspartyl]amino]-2(R)-hydroxy-4-phenylbutyl]-N-tert.butyl-1(R)-cyclohexanecarboxamide] |  | 1.9 nM
6 | CC(C)(C)NC(=O)[C@@H]1CCCC[C@H]1C[C@@H](O)[C@H](Cc1ccccc1)NC(=O)[C@H](CC(N)=O)NC(=O)c1ccc2ccccc2n1 [Compound C, 2(S)-[3(S)-[[N-(2-quinolylcarbonyl)-L-asparaginyl]amino]-2(R)-hydroxy-4-phenylbutyl]-N-tert.butyl-1(R)-cyclohexanecarboxamide] | 4 nM | 

— US5583248A, “Amino acid derivatives having antiviral activity” (Hoffmann-La Roche Inc., priority 1991, dated 1996)
